# Patent US10532999B2 (priority 2012, dated 2020)
# Several values for one entry are separate records, joined by “and”; a condition that tells them apart may be missing. Equal values may be shown once. Read-outs that look alike come from different tables or passages of the source.
# Tests used:
# [1] = Chemical stability of ML336 with or without dithiothreitol (DTT), LCMS; conditions: for Averaged Percent ML336 Remaining after 8 h / Percent ML336 Remaining after 8 h: 10 μM in PBS pH 7.4 (1% DMSO), room temperature; for Percent ML336 Remaining after 8 h: single runs
# VEEV = conditions: read-out: Reported VEEV CPE inhibition; cited from earlier work
# VEEV TC-83 = assay: microbe, parasite or virus in culture; assay type: cell-based; conditions: Venezuelan equine encephalitis virus, Vero 76, read-out: Assay provided VEEV CPE inhibition
# CYP450 (2C9, 2C19) = conditions: noted liability, Table 2, cited from earlier work
# [2] = ML336 without nucleophile (control)
compound,measurement,setting,value
"CN1CCN(C)/C(=N/c2ccc([N+](=O)[O-])cc2C(=O)Nc2ccccc2)C1 [ML336, (E)-2-((1,4-dimethylpiperazin-2-ylidene)amino)-5-nitro-N-phenylbenzamide]",adducts detected by LCMS,"[1]; 50 μM DTT, sampled every hour for eight hours",no adducts were detected
same,Averaged Percent ML336 Remaining after 8 h,[1]; ML336 with 5X DTT (50 μM),98.96%
same,Percent ML336 Remaining after 8 h,[1]; ML336 with 5X DTT (50 μM),100.36% and 97.55%
same,Averaged Percent ML336 Remaining after 8 h,[1]; [2],93.92%
same,Percent ML336 Remaining after 8 h,[1]; [2],96.13% and 91.70%
COc1cc(NC(=O)Nc2cccc(CNC(=O)O[C@H]3CCOC3)c2)ccc1-c1cnco1 [VX-497],IC50,VEEV,19.2 µM
Cc1cc(Cc2cc(C)cc(C(C)(C)C)c2O)c(O)c(Cc2cc(C)cc(C(C)(C)C)c2O)c1 [antioxidant 80],IC50,VEEV TC-83,> 50 µM
same,"CYP450 (2C9, 2C19) inhibition","CYP450 (2C9, 2C19)",~3 µM
same,"CYP450 (2C9, 2C19) inhibition","CYP450 (2C9, 2C19); listed as Antioxidant 80",about 3 μM
O=C(O)Cc1ccccc1Nc1c(Cl)cccc1Cl [diclofenac sodium],IC50,VEEV TC-83,> 50 µM
NS(=O)(=O)c1ccc(-n2c(-c3ccccc3)nc3ccc(Br)cc3c2=O)cc1 [quinazolinone],IC50,VEEV TC-83,> 25 µM
NC(=O)c1ncn([C@@H]2O[C@H](CO)[C@@H](O)[C@H]2O)n1 [ribavirin],IC50,VEEV TC-83,126 µM
